{
  "source": "patent US9176118B2",
  "about": "“Methods employing insect models for determining intestinal absorption of chemical compounds” (Entomopharm ApS, priority 2009, dated 2015)",
  "test": "Decapitated locust model: hemolymph drug concentration by LCMS after administration via esophageal catheter",
  "settings": "male, Locusta migratoria (locust), in vivo",
  "protocol": "The insects may be obtained from local suppliers or bred in house. The grasshoppers were reared under crowded conditions at 28° C. and a 12:12 dark:light photocycle and fed fresh grass and bran. Before experiments the grasshoppers were fed ecologically cultivated wheat for two weeks. Animals used are adult males (in some experiments females) between two to four weeks after adult emergence. After decapitation, test compounds are administrated via a catheter or a probe inserted into the midgut of the animal. At various times after administration hemolymph samples are taken for quantitative determination of drug concentration in the hemolymph. The samples are snap-frozen and stored until analyses. Drug concentration is analysed by HPLC, LC/MSMS or other methods.\nThe head of male locusts (Locusta migratoria), which have been starving for 12 hours, was cut off and a plastic catheter was inserted under microscope into the esophagus. 20 μl of quinidine (0.1 mg/ml) was administered via the catheter by using a Hamilton syringe.\n(§1) 10 and 30 minutes after administration (10 μl) hemolymph was collected with a calibrated capillary tube by puncturing the ventral membrane anterior to the thorax and immediately blown into a tube containing 40 μl aqua dest and 100 μl of acetonitrile. Each sample was centrifuged for 5 minutes (10 000g at 4° C.). 100 μl of the supernatants were transferred to new test tubes for LCMS analysis.\nas §1, with “The head of male locusts (Locusta migratoria), which have been starving for 12 hours, was cut off and a plastic catheter was inserted under microscope into the esophagus. 20 μl of quinidine (1 mg/ml) was administered via the catheter by using a Hamilton syringe. 10 and” for “10 and”\nThe head of male locusts (Locusta migratoria), which have been starving for 12 hours, was cut off and a plastic catheter was inserted under microscope into the esophagus. 20 μl of propranolol (0.1 mg/ml) was administered via the catheter by using a Hamilton syringe.\nas §1, with “analysis. […]” for “analysis.”",
  "data": [
    {"smiles": "Cn1c(=O)c2c(ncn2C)n(C)c1=O", "note": "[caffeine]", "values": [
      {"measurement": "concentration at 10 min", "setting": "2 µg per animal", "value": 177, "unit": "ng/mL"},
      {"measurement": "concentration at 30 min", "setting": "2 µg per animal", "value": 276, "unit": "ng/mL"},
      {"measurement": "concentration at 10 min", "setting": "20 µg per animal", "value": 1150, "unit": "ng/mL"},
      {"measurement": "concentration at 30 min", "setting": "20 µg per animal", "value": 1660, "unit": "ng/mL"}
    ]}
  ]
}
